Entries after “also recorded” stand apart in the source; their conditions may differ.
Tested on: human periodontal ligament (HPDL) cells
Experiment: ALP inducing activity of HPDL cells on cell culture system
Type: cell-based
Conditions: for ALP inducing activity of HPDL cells (amelogenins and peptides based on 6 kDa amelogenin): purified porcine amelogenins and synthetic peptides
Excerpt: Human periodontal ligament (HPDL) cells were obtained according to the method of Somerman et al., (1988) from healthy premolars which were extracted from the patients for orthodontic reasons. The cells were precultured for 4-6 passages with a-MEM medium to establish the primary cell line. The cells were maintained in the alpha modification of Eagle's medium (α-MEM; Life Technologies, Grand Island, N.Y., USA) containing 10% fetal bovine serum (FBS; Asahi Technoglass, Chiba, Japan) and 1% antibiotics (100 U/ml of Penicillin-G and 100 μg/ml of Streptomycin sulfate; Gibco BRL, Grand Island, N.Y., USA) at 37° C. in a humidified 5% CO2 atmosphere. The ST2 cells (Riken Cell Bank, Tsukuba, Japan), an osteoblast-like mouse bone marrow stromal cell line, were cultured under the same conditions.
HPDL cells were distributed in 96-well plates at a density of approximately 5×10^5 cells per a well and incubated for 24 h. The growth medium was then changed to contain 10 nM of 1α-25dihydroxy-Vitamin D3 (CALBIOCHEM, La Jolla, Calif.) and 50 μg/ml (final concentration) of fractionated enamel protein samples or synthesized peptides dissolved in ultrapure water. After 96 additional hours of incubation, the cells were washed once with PBS, and ALP activity was determined after a 10 min incubation at 37° C. in 10 mM p-nitrophenylphosphate (substrate) in 100 mM 2-amino-2-methyl-1,3-propanediol-HCl buffer (pH 10.0) containing 5 mM MgCl2. After adding 0.2 M NaOH, which stopped the reaction, the absorbance at 405 nm was read on a plate reader.
HPDL cells of approximately 5×10^5 cells per well were distributed in 96-well plates and incubated for 24 h. The growth medium was then changed to contain 10 nM of 1α-25dihydroxy-Vitamin D3 and 50 μg/ml (final concentration) of purified sheath protein or synthesized peptide. After 96 additional hours of incubation, ALP activity was determined using p-nitrophenylphosphate as a substrate.
The bioactivities of these synthetic peptides were tested their cytodifferentiation activity of HPDL cells and ST2 cells by determination of increasing ALP inducing activity on cell culture system. When these peptides applied in cell culture system, the concentration of their peptides was employed around 1 ng/ml. In the case of TGF-1, the concentration was 10 ng/ml.
Normal human periodontal ligament fibroblasts were maintained in an α-minimal essential medium (α-MEM) containing 10% fetal bovine serum, either with or without 10 nM 1α-25dihydroxy-vitamin D3 and 1% antibiotics (100 U/mL of penicillin G and 100 μg/mL of streptomycin sulfate) at 37° C. in a humidified atmosphere of air containing 5% CO2. Another cell line, ST2 cells, was obtained from an osteoblast-like mouse bone marrow stromal cell line. These cells were cultured in the same conditions as those described above.
The ALP inducing activities of synthetic peptides using the cell culture of HPDL cells and ST2 cells were examined. The HPDL cells were distributed in 96-well plates at a density of approximately 5×10^5 cells per well and incubated for 24 h. The medium was then changed to α-MEM containing 10 nM of 1α-25dihydroxy-vitamin D3 and either synthetic peptides or growth factors dissolved in ultra-pure water. After 96 h of incubation, the cells were washed once with phosphate-buffered saline, and 10 mM ρ-nitrophenylphosphate in 100 mM 2-amino-2-methel-1,3-propanediol-HCl buffer (pH 10.0) containing 5 mM MgCl2 was added. The ALP activity was determined after 10 min incubation at 37° C. and the absorbance at 405 nm was read using a plate reader, after adding 0.2 M NaOH to stop the reaction. […] When the synthetic peptides were applied in the cell culture system, their final concentrations were 25 or 50 μg/mL. A TGF-β1 receptor inhibitor (SB431542, 10 μM) was applied to the HPDL cell culture system to examine their influence relative to the ALP inducing activity of the synthetic peptides.

6 kDa amelogenin: derived from N-terminal side of 20 kDa amelogenin (MPLPPHPGHPGYINFSYEVLTPLKWYQNMIRHPYTSYGYEPMGGW; porcine 6 kDa amelogenin; listed as Sus scrofa)
ALP inducing activity of HPDL cells (amelogenins and peptides based on 6 kDa amelogenin): activity like TGF-β1; also recorded: strongest ALP inducing activity of HPDL cells

C=C1/C(=C\C=C2/CCC[C@]3(C)[C@@H]([C@H](C)CCCC(C)(C)O)CC[C@@H]23)C[C@@H](O)C[C@@H]1O [1α-25dihydroxy-vitamin D3, reference compound]
levels of ALP activity of HPDL cells by addition of 1α-25dihydroxy-vitamin D3 (10 nM, with application of ESP synthetic peptides or TGF-β1): enhanced and stabilized

NC(=O)c1ccc(-c2nc(-c3ccc4c(c3)OCO4)c(-c3ccccn3)[nH]2)cc1 [SB431542, reference compound]
ALP inducing activity of HPDL cells when adding TGF-β1 receptor inhibitor SB431542 (10 μM SB431542, 10 nM 1α-25dihydroxy-vitamin D3): significantly inhibited the activity of TGF-β1

A-1-1: shorter peptide synthesized based on the sequence of A-1 (MPLPPH; 6 aa from 1 to 6 in sequence 9, 14, 33 and 34; listed as Homo sapiens)
concentration at which the peptide promotes the bioactivity (ALP inducing activity of HPDL cells), high concentration (cell culture system): 1 µg/mL
ALP inducing activity of HPDL cells (amelogenins and peptides based on 6 kDa amelogenin): promote ALP inducing activity
ALP inducing activity of HPDL cells (amelogenins and peptides based on 6 kDa amelogenin) (listed as SEQ ID NO: 6): had ALP inducing activity

A-1-2: shorter peptide synthesized based on the sequence of A-1 (PGHPGY; 6 aa from 7 to 12 in sequence 9, 14, 33 and 34; listed as Homo sapiens)
concentration at which the peptide promotes the bioactivity (ALP inducing activity of HPDL cells), low concentration (cell culture system): 10 ng/mL
ALP inducing activity of HPDL cells (amelogenins and peptides based on 6 kDa amelogenin): promote ALP inducing activity

A-1: N-terminal side peptide synthesized based on the sequence of 6 kDa amelogenin (MPLPPHPGHPGYINF; 15 aa from 1 to 15 in sequence 14, 33 and 34; listed as Homo sapiens)
ALP inducing activity of HPDL cells (amelogenins and peptides based on 6 kDa amelogenin): showed the strong bioactivity

C-1: 15-residue peptide, position 132-146 of porcine 17 kDa sheath protein (VEGPMVQQQVAPSEK; 15 aa from 132 to 146 in sequence 10; listed as Sus scrofa)
ALP activity of HPDL cells (porcine sheath proteins and synthetic peptides) (50 μg/ml protein or peptide, TGF-β1 50 ng/ml, BMP-2 500 ng/ml, 10 nM 1α-25dihydroxy-Vitamin D3, 96 h): not so strong; also recorded: enhanced the ALP activity of the HPDL cells

SDKPPKPELPVDF (13 aa from 144 to 156 in sequence 36; listed as Homo sapiens) [H-2′]
ALP inducing activity of HPDL cells (Example 4) (peptides 50 μg/mL, TGF-β1 1 ng/mL, BMP-2 1 μg/mL, 10 nM 1α-25dihydroxy-vitamin D3, 96 h): showed the same inductive properties

B1: 25 kDa amelogenin: most abundant uncleaved porcine amelogenin polypeptide (protein, UniProt P45561 17-189, looked up)
Amelogenin: MPLPPHPGHPGYINFSYEVLTPLKWYQNMIRHPYTSYGYEPMGGWLHHQIIPVVSQQTPQSHALQPHHHIPMVPAQQPGIPQQPMMPLPGQHSMTPTQHHQPNLPLPAQQPFQPQPVQPQPHQPLQPQSPMHPIQPLLPQPPLPPMFSMQSLLPDLPLEAWPATDKTKREEVD
ALP inducing activity of HPDL cells (amelogenins and peptides based on 6 kDa amelogenin): activity like TGF-β1

— patent publication US8309140B2, “Effect of porcine sheath proteins on the regeneration activity of periodontal ligament” (priority 2005, dated 2012)
